Experiments:
[1] = compound: C(C(=O)C(=O)O)Br [Bromopyruvate] + CCNC(=O)c1noc(-c2cc(C(C)C)c(O)cc2O)c1-c1ccc(CN2CCOCC2)cc1 [Luminespib] (partner 0.01 µM); assay: relative viability (nuclei count vs DMSO), 5 days (fraction); higher = more cells survive
Outline: (§1)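 Lung cancer cell lines, seeded in 1536-well plates, were treated the following day by pin tool with a single drug or with five library-drug doses (not always all listed) in √10 steps on top of a fixed anchor-drug dose. Cells were fixed and nuclei stained in one step after 5 days, and nuclei were counted. Relative viability is the nuclei count for treated wells divided by that for vehicle wells, reported as medians of duplicate plates.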

[2] = compound: C(C(=O)C(=O)O)Br [Bromopyruvate] + Cc1nc(Nc2ncc(C(=O)Nc3c(C)cccc3Cl)s2)cc(N2CCN(CCO)CC2)n1 [Dasatinib] (partner 0.075 µM); assay: as above
Outline: as §1

Row | Cell Line | relative viability ([1]; first compound 1 µM) | relative viability ([1]; first compound 3.162 µM) | relative viability ([1]; first compound 10 µM) | relative viability ([1]; first compound 31.62 µM) | relative viability ([1]; first compound 100 µM) | relative viability ([2]; first compound 1 µM) | relative viability ([2]; first compound 3.162 µM) | relative viability ([2]; first compound 10 µM) | relative viability ([2]; first compound 31.62 µM) | relative viability ([2]; first compound 100 µM)
1 | LCLC-97TM1 | 0.727 | 0.792 | 0.864 | 0.708 | 0.709 | 0.74 | 0.898 | 0.835 | 0.763 | 0.957
2 | NCI-H838 | 0.282 | 0.359 | 0.456 | 0.324 | 0.282 | 0.325 | 0.277 | 0.208 | 0.302 | 0.264
3 | NCI-H1355 | 0.721 | 0.77 | 0.649 | 0.735 | 0.698 | 0.674 | 0.761 | 0.766 | 0.713 | 0.786
4 | HOP-62 | 0.887 | 0.97 | 0.84 | 0.934 | 0.9 | 0.643 | 0.68 | 0.791 | 0.609 | 0.709
5 | NCI-H2087 | 0.141 | 0.176 | 0.16 | 0.175 | 0.161 | 0.807 | 1 | 0.914 | 0.745 | 0.824

— the supplement of paper PMC10307832
